Measured values as given in patent publication US10064885B2, “Metabolic gene, enzyme, and flux targets for cancer therapy” (Massachusetts Institute of Technology, priority 2010, dated 2018).

Assays:
Format in all cases: cell-based, human
[1] = test system: Hypoxia response element- (HRE-) driven reporter; test: Hypoxia response element (HRE)-driven reporter in HCT116 cells expressing IDH1-targeting shRNAs; conditions: normal culture, hypoxia, or 1 mM DMOG, 18 hours
Procedure: Luciferase Assays. Subconfluent cells in 6 well plates were co-transfected with 1 μg of a firefly luciferase vector and 50 ng Renilla luciferase vector (pRL-TK; Promega) using Fugene 6 reagent. The ODD-Luciferase and Luciferase vectors were obtained from Addgene and based off of the pcDNA3.1 vector (49). Hypoxia responsive element-luciferase (HRE-Luc) vectors were used as described (50). Approximately 24 hours after transfection, medium was changed and cells were placed under normoxia, hypoxia, or treated with 1 mM dimethyloxalylglycine (DMOG). After 18 hours of treatment, cells were lysed and luciferase activity was determined using the Dual Luciferase Reporter Assay system (Promega) according to the manufacturer's instructions.

[2] = test system: MDA-MB-231 breast carcinoma; test: Reductive carboxylation by [1-13C]glutamine labeling and GC/MS in MDA-MB-231 cells expressing shRNAs
Procedure: (§1) Cell Culture, Isotopic Labeling, and Hypoxia. All cell lines were cultured in Dulbecco's Modified Eagle Medium (DMEM; Mediatech) containing 10% fetal bovine serum (FBS; Invitrogen) and 100 U/ml penicillin/streptomycin (P/S; Mediatech) unless otherwise mentioned. Cell lines were obtained from ATCC unless otherwise noted. The VC3 glioma cell line was provided by Tim Lautenschlaeger (Ohio State University), MDA-MB-231 and HCT116 cell lines were provided by Ferdinando Chiaradonna (University of Milano-Bicocca), MRC5 cells were provided by Stephen Lippard (MIT), SN12C, ACHN, and 786-O cells were provided by Kevin Courtney and Lew Cantley (Harvard Medical School), and MCF10A cells were provided by Joan Brugge (Harvard Medical School), and Huh7 cells were provided by Mike Hemann (MIT). MCF10A cells were cultured in custom DMEM/F12 (Hyclone) containing 5% horse serum, 20 ng/ml EGF, 10 μg/ml insulin, 100 ng/ml cholera toxin, 0.5 mg/ml hydrocortisone, 100 U/ml penicillin/streptomycin, and labeled/unlabeled glucose and glutamine at 18 mM and 2.5 mM, respectively. PRC3, WT8, pTV, and pTR cell lines were subcloned from the 786-O cell line as previously described (42, 43). For isotopic labeling experiments, cells were cultured in 6 well plates in glucose- and glutamine-free DMEM (Sigma) containing 10% dialyzed FBS (Invitrogen), 100 U/ml P/S, naturally labeled glucose or glutamine, and the appropriate tracer, including [U-^13C5]glutamine (Isotec), [5-^13C]glutamine (C/D/N Isotopes), [1-^13C]glutamine, [U-^13C6]glucose, [1,2-^13C2]glucose (all from Cambridge Isotope Labs). Steady state labeling of organic and amino acids was accomplished by culturing subconfluent cells in tracer medium for 24 hours. […] The internal gas content was monitored using Fyrite gas analyzers (Bacharach) for CO2 and O2. […]
(§2) Metabolite Extraction and Gas Chromatography/Mass Spectrometry (GC/MS) Analysis. […] In some ISA experiments, cells were trypsinized, counted, and pelleted prior to lipid extraction as described above. […]

A549 cells [3] = test: Reductive glutamine metabolism by isotopic labeling and GC/MS in A549 cells expressing shRNAs; conditions: [U-13C5]glutamine, aspartate, malate, fumarate
Procedure: as §1, §2

HCT116 colon carcinoma = test: Reductive carboxylation by [1-13C]glutamine labeling and GC/MS in HCT116 cells expressing shRNAs
Procedure: as §1, §2

A549 cells [4] = test: 13C Metabolic Flux Analysis (MFA) of A549 cells expressing IDH1-targeting shRNAs, [U-13C5]glutamine tracer
Procedure: Cell Culture, Isotopic Labeling, and Hypoxia. All cell lines were cultured in Dulbecco's Modified Eagle Medium (DMEM; Mediatech) containing 10% fetal bovine serum (FBS; Invitrogen) and 100 U/ml penicillin/streptomycin (P/S; Mediatech) unless otherwise mentioned. Cell lines were obtained from ATCC unless otherwise noted. The VC3 glioma cell line was provided by Tim Lautenschlaeger (Ohio State University), MDA-MB-231 and HCT116 cell lines were provided by Ferdinando Chiaradonna (University of Milano-Bicocca), MRC5 cells were provided by Stephen Lippard (MIT), SN12C, ACHN, and 786-O cells were provided by Kevin Courtney and Lew Cantley (Harvard Medical School), and MCF10A cells were provided by Joan Brugge (Harvard Medical School), and Huh7 cells were provided by Mike Hemann (MIT). MCF10A cells were cultured in custom DMEM/F12 (Hyclone) containing 5% horse serum, 20 ng/ml EGF, 10 μg/ml insulin, 100 ng/ml cholera toxin, 0.5 mg/ml hydrocortisone, 100 U/ml penicillin/streptomycin, and labeled/unlabeled glucose and glutamine at 18 mM and 2.5 mM, respectively. PRC3, WT8, pTV, and pTR cell lines were subcloned from the 786-O cell line as previously described (42, 43). For isotopic labeling experiments, cells were cultured in 6 well plates in glucose- and glutamine-free DMEM (Sigma) containing 10% dialyzed FBS (Invitrogen), 100 U/ml P/S, naturally labeled glucose or glutamine, and the appropriate tracer, including [U-^13C5]glutamine (Isotec), [5-^13C]glutamine (C/D/N Isotopes), [1-^13C]glutamine, [U-^13C6]glucose, [1,2-^13C2]glucose (all from Cambridge Isotope Labs). Steady state labeling of organic and amino acids was accomplished by culturing subconfluent cells in tracer medium for 24 hours. Labeling of fatty acids for Isotopomer Spectral Analysis (USA) was conducted over 3-5 days of culture in an excess of tracer medium (3-4 ml/well in a 6 well plate) to prevent nutrient depletion. Hypoxic culture was conducted by feeding a custom mixture of 1% O2, 5% CO2, and 94% N2 to a standard incubator controlled at 5% CO2. HEPES (Mediatech) was added to the culture medium at 20 mM to maintain pH between normoxic and hypoxic cultures. The internal gas content was monitored using Fyrite gas analyzers (Bacharach) for CO2 and O2. O2 levels were confirmed at 1.5-2% during hypoxic culture.
Stable cell cultures with decreased IDH1 and IDH2 expression were generated via lentiviral-mediated shRNA expression. pLKO.1 lentiviral vectors targeting IDH1 with shRNA sequences of […] TT (IDH1a; TRCN0000027298; SEQ ID NO:1) and […] TT (IDH1b; TRCN0000027289; SEQ ID NO:2), IDH2 with shRNA sequence […] TT (TRCN0000027225; SEQ ID NO:3). For controls, either non-targeting control shRNA (SHC002; Sigma) or pLKO.1 scrambled control vector (44)(Addgene) were used. pLKO.1 vector targeting ARNT with shRNA sequence […] TT (TRCN0000003819; SEQ ID NO:4) was obtained from Open Biosystems.
HEK293T cells were co-transfected with pLKO.1 vectors and packaging plasmids to produce lentivirus. Filtered supernatants were used for infection, and cells were selected with puromycin (2 μg/ml) for at least two passages before initiating tracer and flux experiments.
Metabolite Extraction and Gas Chromatography/Mass Spectrometry (GC/MS) Analysis. At the conclusion of culture, cells were rinsed with 1 ml ice cold PBS and quenched with 0.4 ml ice cold methanol. An equal volume of water was added, and cells were collected in tubes by scraping with a pipette. One volume of ice cold chloroform was added to each tube, and the extracts were vortexed at 4° C. for 30 minutes. Samples were centrifuged at 14,000 g for 5 minutes at room temperature. For analysis of polar metabolites, the aqueous phase was transferred to a new tube for evaporation under airflow. For ISA experiments, the non-polar fraction was collected and evaporated under airflow. In some ISA experiments, cells were trypsinized, counted, and pelleted prior to lipid extraction as described above. […]

143B osteosarcoma = test: Reductive carboxylation by [1-13C]glutamine labeling and GC/MS in 143B cells expressing shRNAs
Procedure: as §1, with “respectively.” for “respectively. PRC3, WT8, pTV, and pTR cell lines were subcloned from the 786-O cell line as previously described (42, 43). For isotopic labeling experiments, cells were cultured in 6 well plates in glucose- and glutamine-free DMEM (Sigma) containing 10% dialyzed FBS (Invitrogen), 100 U/ml P/S, naturally labeled glucose or glutamine, and the appropriate tracer, including [U-^13C5]glutamine (Isotec), [5-^13C]glutamine (C/D/N Isotopes), [1-^13C]glutamine, [U-^13C6]glucose, [1,2-^13C2]glucose (all from Cambridge Isotope Labs). Steady state labeling of organic and amino acids was accomplished by culturing subconfluent cells in tracer medium for 24 hours.”
as §2

[5] = Anaplerotic reactions, exchange flux
[6] = Anaplerotic reactions, net flux
[7] = Pentose Phosphate Pathway, exchange flux
[8] = Pentose Phosphate Pathway, net flux

CCGGCGAATCATTTGGGAATTGATTCTCGAGAATCAATTCCCAAATGATTCGTTT TT (CCGGCGAATCATTTGGGAATTGATTCTCGAGAATCAATTCCCAAATGATTCGTTTTT; expressed or natural sequence) [IDH1b, pLKO.1 lentiviral vector shRNA targeting IDH1]
HRE-driven reporter levels (hypoxia signaling) [1]: does not increase hypoxia signaling and stabilization
reductive carboxylation flux (M1 label from [1-13C]glutamine) [2]: reduces reductive carboxylation flux
M3 mass isotopomers derived from [U-13C5]glutamine (reductive carboxylation) (A549 cells [3]): decrease in reductive carboxylation
reductive carboxylation flux (M1 label from [1-13C]glutamine) (HCT116 colon carcinoma): reduces reductive carboxylation flux
Flux Pyr.m <−> Ala (A549 cells [4]; Amino acids, exchange flux): 0.00 fmol/cell*hr
Flux Gln −> Glu (A549 cells [4]; Amino acids, net flux): 24.57 fmol/cell*hr
Flux Gln.x −> Gln (A549 cells [4]; Amino acids, net flux): 25.06 fmol/cell*hr
Flux Glu −> Glu.x (A549 cells [4]; Amino acids, net flux): 19.91 fmol/cell*hr
Flux Pyr.m −> Ala (A549 cells [4]; Amino acids, net flux): 0.42 fmol/cell*hr
Flux Glu <−> Akg (A549 cells [4]; [5]): 442.50 fmol/cell*hr
Flux Mal <−> Pyr.m + CO2 (A549 cells [4]; [5]): 1.64 fmol/cell*hr
Flux Oac <−> Asp (A549 cells [4]; [5]): 372.30 fmol/cell*hr
Flux Glu −> Akg (A549 cells [4]; [6]): 4.16 fmol/cell*hr
Flux Mal −> Pyr.m + CO2 (A549 cells [4]; [6]): 3.56 fmol/cell*hr
Flux Oac −> Asp (A549 cells [4]; [6]): 0.60 fmol/cell*hr
Flux Pyr.m + CO2 −> Oac (A549 cells [4]; [6]): 0.00 fmol/cell*hr
Flux 0.6*Asp + 0.5*Glu + 0.42*Ala + 0.5*Gln −> Biomass (A549 cells [4]; Biomass, net flux): 1.00 fmol/cell*hr
Flux AcCoA.c −> Fatty acids (A549 cells [4]; Biomass, net flux): 11.28 fmol/cell*hr
Flux Cit −> AcCoA.c + Oac (A549 cells [4]; Biomass, net flux): 11.28 fmol/cell*hr
Flux P5P −> NTP (A549 cells [4]; Biomass, net flux): 0.50 fmol/cell*hr
Flux 0*Pyr.c −> Pyr.mnt (A549 cells [4]; Dilution/Mixing): 0.82 fmol/cell*hr
Flux 0*Pyr.m −> Pyr.mnt (A549 cells [4]; Dilution/Mixing): 0.18 fmol/cell*hr
Flux 0*Suc −> Suc.mnt (A549 cells [4]; Dilution/Mixing): 0.85 fmol/cell*hr
Flux Suc.d −> Suc.mnt (A549 cells [4]; Dilution/Mixing): 0.15 fmol/cell*hr
Flux Pyr.c <−> Pyr.m (A549 cells [4]; Dilution/Mixing, exchange flux): 49.63 fmol/cell*hr
Flux Pyr.c −> Pyr.m (A549 cells [4]; Dilution/Mixing, net flux): 13.19 fmol/cell*hr
Flux DHAP <−> GAP (A549 cells [4]; Glycolysis, exchange flux): 550.40 fmol/cell*hr
Flux G6P <−> F6P (A549 cells [4]; Glycolysis, exchange flux): 0.00 fmol/cell*hr
Flux GAP <−> 3PG (A549 cells [4]; Glycolysis, exchange flux): 160.00 fmol/cell*hr
Flux Pyr.c <−> Lac (A549 cells [4]; Glycolysis, exchange flux): 695.70 fmol/cell*hr
Flux 3PG −> Pyr.c (A549 cells [4]; Glycolysis, net flux): 217.80 fmol/cell*hr
Flux DHAP −> GAP (A549 cells [4]; Glycolysis, net flux): 107.60 fmol/cell*hr
Flux F6P −> DHAP + GAP (A549 cells [4]; Glycolysis, net flux): 107.60 fmol/cell*hr
Flux G6P −> F6P (A549 cells [4]; Glycolysis, net flux): 102.60 fmol/cell*hr
Flux GAP −> 3PG (A549 cells [4]; Glycolysis, net flux): 217.80 fmol/cell*hr
Flux Glc.x −> G6P (A549 cells [4]; Glycolysis, net flux): 110.60 fmol/cell*hr
Flux Lac −> Lac.x (A549 cells [4]; Glycolysis, net flux): 204.60 fmol/cell*hr
Flux Pyr.c −> Lac (A549 cells [4]; Glycolysis, net flux): 204.60 fmol/cell*hr
Flux P5P + E4P <−> F6P + GAP (A549 cells [4]; [7]): 1.9E+06 fmol/cell*hr
Flux P5P + P5P <−> S7P + GAP (A549 cells [4]; [7]): 6.3E+07 fmol/cell*hr
Flux S7P + GAP <−> F6P + E4P (A549 cells [4]; [7]): 1.1E+06 fmol/cell*hr
Flux G6P −> P5P + CO2 (A549 cells [4]; [8]): 8.01 fmol/cell*hr
Flux P5P + E4P −> F6P + GAP (A549 cells [4]; [8]): 2.50 fmol/cell*hr
Flux P5P + P5P −> S7P + GAP (A549 cells [4]; [8]): 2.50 fmol/cell*hr
Flux S7P + GAP −> F6P + E4P (A549 cells [4]; [8]): 2.50 fmol/cell*hr
Flux Fum <−> Mal (A549 cells [4]; TCA Cycle, exchange flux): 1.6E+07 fmol/cell*hr
Flux Mal <−> Oac (A549 cells [4]; TCA Cycle, exchange flux): 124.70 fmol/cell*hr
Flux Suc <−> Fum (A549 cells [4]; TCA Cycle, exchange flux): 0.29 fmol/cell*hr
Flux Cit <−> Akg + CO2 (A549 cells [4]; TCA Cycle, exchange flux (reductive IDH flux)): 2.39 fmol/cell*hr
Flux AcCoA.m + Oac −> Cit (A549 cells [4]; TCA Cycle, net flux): 16.33 fmol/cell*hr
Flux Akg −> Suc + CO2 (A549 cells [4]; TCA Cycle, net flux): 9.21 fmol/cell*hr
Flux Fum −> Mal (A549 cells [4]; TCA Cycle, net flux): 9.21 fmol/cell*hr
Flux Mal −> Oac (A549 cells [4]; TCA Cycle, net flux): 5.65 fmol/cell*hr
Flux Pyr.m −> AcCoA.m + CO2 (A549 cells [4]; TCA Cycle, net flux): 16.33 fmol/cell*hr
Flux Suc −> Fum (A549 cells [4]; TCA Cycle, net flux): 9.21 fmol/cell*hr
Flux Cit −> Akg + CO2 (A549 cells [4]; TCA Cycle, net flux (IDH)): 5.05 fmol/cell*hr
reductive carboxylation flux (143B osteosarcoma): reduces reductive carboxylation flux
